Molecular target: T1, human orexin type 2 receptor (hOX2R) (Homo sapiens, UniProt O43614)
T1 construct: expressed in transfected cells
T1 sequence (O43614 1-444): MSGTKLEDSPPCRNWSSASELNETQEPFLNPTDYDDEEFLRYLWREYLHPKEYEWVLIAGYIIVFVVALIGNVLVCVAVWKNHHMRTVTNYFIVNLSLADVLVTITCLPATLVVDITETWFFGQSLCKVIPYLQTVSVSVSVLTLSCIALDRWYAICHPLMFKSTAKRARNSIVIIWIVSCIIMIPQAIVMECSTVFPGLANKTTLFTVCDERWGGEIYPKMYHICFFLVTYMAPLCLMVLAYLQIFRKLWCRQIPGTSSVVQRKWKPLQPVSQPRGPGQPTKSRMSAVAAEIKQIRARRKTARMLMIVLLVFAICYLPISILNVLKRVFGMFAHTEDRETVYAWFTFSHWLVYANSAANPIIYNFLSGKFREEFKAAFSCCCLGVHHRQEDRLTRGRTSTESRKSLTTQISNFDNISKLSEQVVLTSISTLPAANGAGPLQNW
Experiment: Measurement of orexin type 2 receptor agonist activity (FLIPR calcium fluorescence)
Format: cell-based
Details: CHO cells expressing hOX2R, FLIPR calcium fluorescence; for EC50: read-out: hOx2 pEC50 (converted); for Emax: CHO, read-out: hOx2 Emax (%)
How it was run: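 Agonism was read as fluorescence in cells stably expressing human OX2R. E. is the response at 10 μM relative to orexin A as full agonist (100%).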

SMILES	EC50	Emax
CS(=O)(=O)NC1C(Cc2cccc(-c3ccccc3)c2)N(C(=O)C(F)F)CC12CC2 (racemic) [Compound 5, N-(6-([1,1′-biphenyl]-3-ylmethyl)-5-(2,2-difluoroacetyl)-5-azaspiro[2.4]heptan-7-yl)methanesulfonamide]	100 to 1000 nM	90 to 100%
CS(=O)(=O)N[C@@H]1[C@H](Cc2cccc(-c3ccccc3)c2)N(C(=O)[C@H](O)C(F)F)CC12CC2 [Compound 70, N-((6S,7S)-6-([1,1′-biphenyl]-3-ylmethyl)-5-((S)-3,3-difluoro-2-hydroxypropanoyl)-5-azaspiro[2.4]heptan-7-yl)methanesulfonamide]	1 to 10 nM	90 to 100%
O=C(NCC1(F)CC1)N1CC2(CC2)[C@H](NS(=O)(=O)CF)[C@@H]1Cc1cccc(-c2ccccc2)c1F [Compound 157, (6S,7S)-6-((2-fluoro-[1,1′-biphenyl]-3-yl)methyl)-N-((1-fluorocyclopropyl)methyl)-7-((fluoromethyl)sulfonamido)-5-azaspiro[2.4]heptane-5-carboxamide]	0.0794 to 1 nM	90 to 100%
CS(=O)(=O)NC1C(Cc2cccc(-c3ccccc3)c2)N(C(=O)C(F)(F)F)CC12CC2 (racemic) [Compound 4, N-(6-([1,1′-biphenyl]-3-ylmethyl)-5-(2,2,2-trifluoroacetyl)-5-azaspiro[2.4]heptan-7-yl)methanesulfonamide]	100 to 1000 nM	60 to 70%
O=C([C@H]1C[C@@H](F)C1)N1CC2(CC2)[C@H](NS(=O)(=O)CF)[C@@H]1Cc1cccc(-c2ccccc2)c1F [Compound 189]	1 to 10 nM	90 to 100%
CC(C)S(=O)(=O)N[C@@H]1[C@H](Cc2cccc(-c3ccccc3)c2F)N(C(=O)[C@H]2CCO2)CC12CC2 [Compound 162, N-((6S,7S)-6-((2-fluoro-[1,1′-biphenyl]-3-yl)methyl)-5-((R)-oxetane-2-carbonyl)-5-azaspiro[2.4]heptan-7-yl)propane-2-sulfonamide]	1 to 10 nM	90 to 100%
CS(=O)(=O)N[C@@H]1[C@H](Cc2cccc(-c3ccccc3)c2F)N(C(=O)NCCCF)CC12CC2 [Compound 79, (6S,7S)-6-((2-fluoro-[1,1′-biphenyl]-3-yl)methyl)-N-(3-fluoropropyl)-7-(methylsulfonamido)-5-azaspiro[2.4]heptane-5-carboxamide]	1 to 10 nM	90 to 100%

Results, then the compound that gave them:

EC50	Emax	SMILES
0.0794 to 1 nM	90 to 100%	CS(=O)(=O)N[C@@H]1[C@H](Cc2cccc(-c3ccccc3)c2F)N(C(=O)NCC(F)F)CC12CC2 [Compound 112, (6S,7S)-N-(2,2-difluoroethyl)-6-((2-fluoro-[1,1′-biphenyl]-3-yl)methyl)-7-(methylsulfonamido)-5-azaspiro[2.4]heptane-5-carboxamide]
10 to 100 nM	90 to 100%	CS(=O)(=O)N[C@@H]1[C@H](Cc2cccc(-c3ccccc3)c2)N(C(=O)[C@H]2CCO2)CC12CC2 [Compound 55, N-((6S,7S)-6-([1,1′-biphenyl]-3-ylmethyl)-5-((R)-oxetane-2-carbonyl)-5-azaspiro[2.4]heptan-7-yl)methanesulfonamide]
10 to 100 nM	80 to 90%	O=C([C@H]1CCO1)N1CC2(CC2)[C@H](NS(=O)(=O)CF)[C@@H]1Cc1cccc(-c2cccc(C(F)(F)F)c2)c1F [Compound 197, 1-fluoro-N-((6S,7S)-6-((2-fluoro-3′-(trifluoromethyl)-[1,1′-biphenyl]-3-yl)methyl)-5-((R)-oxetane-2-carbonyl)-5-azaspiro[2.4]heptan-7-yl)methanesulfonamide]
10 to 100 nM	90 to 100%	C[C@]1(NC(=O)N2CC3(CC3)[C@H](NS(C)(=O)=O)[C@@H]2Cc2cccc(-c3ccccc3)c2F)CCOC1 [Compound 320, (6S,7S)-6-((2-fluoro-[1,1′-biphenyl]-3-yl)methyl)-7-(methylsulfonamido)-N-((S)-3-methyltetrahydrofuran-3-yl)-5-azaspiro[2.4]heptane-5-carboxamide]

— US12503475B2 (Centessa Pharmaceuticals (UK) Limited, priority 2020, dated 2025)
